The numbers were not newly measured in patent US20010001064A1, “Flow electroporation chamber and methods of use thereof” (priority 1998, published 2001), which cites them from elsewhere.

In data set [1] the target is T1, hemoglobin (Homo sapiens, UniProt P68871+P69905). To be noted: pH 7.4, 37 degrees C.
Data set [2] addresses T1, hemoglobin. To be noted: relative to DPG.

T1 sequence (P69905 2-142 limits assumed): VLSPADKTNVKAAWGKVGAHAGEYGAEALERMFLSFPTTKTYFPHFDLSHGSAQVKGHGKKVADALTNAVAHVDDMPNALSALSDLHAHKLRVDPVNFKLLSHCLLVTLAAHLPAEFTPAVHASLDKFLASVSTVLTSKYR
T1 sequence (P68871 2-147 limits assumed): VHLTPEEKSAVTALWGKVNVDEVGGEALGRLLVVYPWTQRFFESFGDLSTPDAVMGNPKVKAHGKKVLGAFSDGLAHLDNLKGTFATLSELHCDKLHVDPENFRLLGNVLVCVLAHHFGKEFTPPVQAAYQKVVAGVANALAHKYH

Consider `O=P(O)(O)O[C@H]1[C@H](OP(=O)(O)O)[C@@H](OP(=O)(O)O)[C@H](OP(=O)(O)O)[C@@H](OP(=O)(O)O)[C@H]1OP(=O)(O)O` [IHP, inositol hexaphosphate], for which, on hemoglobin [1], the P50 of hemoglobin is listed as at most 96.4 mm Hg. Also, on hemoglobin [2], the “affinity to hemoglobin, higher than DPG” value is on record as 1000 fold.
